In US20080293727A1, “Novel sulfonamide inhibitors of aspartyl protease” (priority 1992, published 2008):

Molecular target: HIV-1 protease (Human immunodeficiency virus type 1 group M subtype B, UniProt P04585)
Assay: Inhibition constants against HIV-1 protease (method of Pennington et al.)
Assay type: biochemical
Settings: HIV-1 protease; read-out: Ki value
Source text: We measured the inhibition constants of the compounds listed in Table VII against HIV-1 protease using the above-cited method of Pennington et al.

Row | SMILES | Ki [nM]
1 | CC(=O)Nc1ccc(S(=O)(=O)N(C)C[C@@H](O)[C@H](Cc2ccccc2)NC(=O)O[C@H]2CCOC2)cc1 [Compound 101] | 250
2 | COC(=O)N[C@@H](Cc1ccccc1)[C@H](O)CN(CC(C)C)S(=O)(=O)c1ccc(NC(C)=O)cc1 [Compound 102] | 33
3 | COC(=O)N[C@@H](Cc1ccccc1)[C@H](O)CN(CC(C)C)S(=O)(=O)c1ccc(Cl)c(Cl)c1 [Compound 103] | 4.5
4 | COC(=O)N[C@@H](Cc1ccccc1)[C@H](O)CN(CC(C)C)S(=O)(=O)c1ccc(F)cc1 [Compound 104] | 5.5
5 | C=C(C)COC(=O)N[C@@H](Cc1ccccc1)[C@H](O)CN(CC(C)C)S(=O)(=O)c1ccc(NC(C)=O)cc1 [Compound 105] | 7.5
6 | C=C(C)COC(=O)N[C@@H](Cc1ccccc1)[C@H](O)CN(CC(C)C)S(=O)(=O)c1ccc(Cl)c(Cl)c1 [Compound 106] | 1.4
7 | C=C(C)COC(=O)N[C@@H](Cc1ccccc1)[C@H](O)CN(CC(C)C)S(=O)(=O)c1ccc(F)cc1 [Compound 107] | 1.4
8 | CC(C)CN(C[C@@H](O)[C@H](Cc1ccccc1)NC(=O)OC[C@@H]1COC(=O)N1)S(=O)(=O)c1ccc(F)cc1 [Compound 109, 4-Fluoro-N-(2-(syn)-hydroxy-3-((2-oxazolidon-(S)-4-yl)-methoxycarbonylamino)-4-(S)-phenyl-butyl)-N-isobutyl-benzenesulfonamide] | 6
9 | CC(=O)Nc1ccc(S(=O)(=O)N(CC(C)C)CC(O)C(Cc2ccccc2)NC(=O)OCC2COC(=O)N2)cc1 (stereo not shown) [Compound 110] | 28
10 | O=C(N[C@@H](Cc1ccccc1)[C@H](O)CN(CC1CCCC1)S(=O)(=O)c1ccc(F)cc1)OCc1cccnc1 [Compound 111] | 0.3
11 | CC(C)CN(C[C@@H](O)[C@H](Cc1ccccc1)NC(=O)O[C@H]1CCOC1)S(=O)(=O)c1cccc(S(N)(=O)=O)c1 [Compound 112, Benzene-1,3-disulfonic acid 1-amide 3-((2 syn,3S)-2-hydroxy-4-phenyl-3-(3-(S)-tetrahydrofuran-3-yloxycarbonylamino)-butyl)-isobutyl-amide] | 4
12 | CC(C)CN(C[C@@H](O)[C@H](Cc1ccccc1)NC(=O)O[C@H]1CCOC1)S(=O)(=O)c1ccoc1 [Compound 113] | 3
13 | C=CCOC(=O)N[C@@H](Cc1ccccc1)[C@H](O)CN(CC1CCCC1)S(=O)(=O)c1ccc(F)cc1 [Compound 114, N-((3-Allyloxycarbonylamino)-(2 syn,3S)-2-hydroxy-4-phenyl-butyl)-N-cyclopentylmethyl-4-fluoro-benzenesulfonamide] | 0.35
14 | CCOC(=O)N[C@@H](Cc1ccccc1)[C@H](O)CN(CC1CCCC1)S(=O)(=O)c1ccc(F)cc1 [Compound 115, N-Cyclopentylmethyl-N-((3-ethoxycarbonylamino)-(2 syn,3S)-2-hydroxy-4-phenyl-butyl)-4-fluoro-benzenesulfonamide] | 0.5
15 | O=C(N[C@@H](Cc1ccccc1)[C@H](O)CN(CC1CCCC1)S(=O)(=O)c1ccc(Cl)cc1)O[C@H]1CCOC1 [Compound 116, 4-Chloro-N-cyclopentylmethyl-N-((2 syn,3S)-2-hydroxy-4-phenyl-3-((S)-tetrahydrofuran-3-yloxycarbonylamino)-butyl)-benzenesulfonamide] | < 0.1
16 | C=CCOC(=O)N[C@@H](Cc1ccccc1)[C@H](O)CN(CC1CCCC1)S(=O)(=O)c1ccc(Cl)cc1 [Compound 117] | 0.26
17 | O=C(N[C@@H](Cc1ccccc1)[C@H](O)CN(CC1CCCC1)S(=O)(=O)c1ccc(Cl)cc1)OCc1cccnc1 [Compound 118] | < 0.1
18 | CCOC(=O)N[C@@H](Cc1ccccc1)[C@H](O)CN(CC(C)C)S(=O)(=O)c1ccc(Cl)c(Cl)c1 [Compound 119] | 1.8
19 | CCOC(=O)N[C@@H](Cc1ccccc1)[C@H](O)CN(CC(C)C)S(=O)(=O)c1ccc(NC(C)=O)cc1 [Compound 120] | 11
20 | CCOC(=O)N[C@@H](Cc1ccccc1)[C@H](O)CN(CC(C)C)S(=O)(=O)c1ccc(F)cc1 [Compound 121] | 2
21 | C=CCOC(=O)N[C@@H](Cc1ccccc1)[C@H](O)CN(CC(C)C)S(=O)(=O)c1ccc(F)cc1 [Compound 122] | 1.2
22 | COc1ccc(S(=O)(=O)N(CC(C)C)C[C@@H](O)[C@H](Cc2ccccc2)NC(=O)O[C@H]2CCOC2)cc1OC [Compound 123] | 10
23 | CC(C)CN(C[C@@H](O)[C@H](Cc1ccccc1)NC(=O)O[C@H]1CCOC1)S(=O)(=O)c1ccc(F)c(F)c1 [Compound 124] | 1.1

Row | SMILES | Ki [nM]
24 | CC(=O)Nc1ccc(S(=O)(=O)N(CC2CCCC2)C[C@@H](O)[C@H](Cc2ccccc2)NC(=O)O[C@H]2CCOC2)cc1 [Compound 125, N-(4-(Cyclopentylmethyl-((2 syn,3S)-2-hydroxy-4-phenyl-3-((S)-tetrahydrofuran-3-yloxycarbonylamino)-butyl)-sulfamoyl)-phenyl)-acetamide] | 0.3
25 | CN(C[C@@H](O)[C@H](Cc1ccccc1)NC(=O)OC(C)(C)C)S(=O)(=O)c1ccc(Cl)c(Cl)c1 [Compound 126] | 310
26 | CN(C[C@@H](O)[C@H](Cc1ccccc1)NC(=O)OC(C)(C)C)S(=O)(=O)c1ccc(F)cc1 [Compound 127] | 650
27 | CC(=O)Nc1ccc(S(=O)(=O)N(C)C[C@@H](O)[C@H](Cc2ccccc2)NC(=O)OC(C)(C)C)cc1 [Compound 128] | > 5000
28 | CC(C)(C)OC(=O)NC(Cc1ccccc1)C(O)CN(CC1CCCO1)S(=O)(=O)c1ccc(F)cc1 (stereo not shown) [Compound 129] | 19
29 | C=C(C)CN(C[C@@H](O)[C@H](Cc1ccccc1)NC(=O)OC(C)(C)C)S(=O)(=O)c1ccc(F)cc1 [Compound 130] | 14
30 | C=C(C)CN(C[C@@H](O)[C@H](Cc1ccccc1)NC(=O)OC(C)(C)C)S(=O)(=O)c1ccc(NC(C)=O)cc1 [Compound 131] | 60
31 | O=C(NC(Cc1ccccc1)C(O)CN(CC1CCCO1)S(=O)(=O)c1ccc(F)cc1)OC1CCOC1 (stereo not shown) [Compound 132] | 6
32 | CC(=O)Nc1ccc(S(=O)(=O)N(CC2CCCO2)CC(O)C(Cc2ccccc2)NC(=O)OC2CCOC2)cc1 (stereo not shown) [Compound 133] | 24
33 | C=C(C)CN(C[C@@H](O)[C@H](Cc1ccccc1)NC(=O)O[C@H]1CCOC1)S(=O)(=O)c1ccc(NC(C)=O)cc1 [Compound 134] | 8.4
34 | C=C(C)CN(C[C@@H](O)[C@H](Cc1ccccc1)NC(=O)O[C@H]1CCOC1)S(=O)(=O)c1ccc(F)cc1 [Compound 135] | 2.7
35 | O=C(N[C@@H](Cc1ccccc1)[C@H](O)CN(Cc1ccco1)S(=O)(=O)c1ccc(F)cc1)O[C@H]1CCOC1 [Compound 136] | 18
36 | CC(=O)Nc1ccc(S(=O)(=O)N(Cc2ccco2)C[C@@H](O)[C@H](Cc2ccccc2)NC(=O)O[C@H]2CCOC2)cc1 [Compound 137] | 26
37 | CC(C)CN(C[C@@H](O)[C@H](Cc1ccccc1)NC(=O)O[C@H]1CCOC1)S(=O)(=O)c1cccc(Cl)c1 [Compound 138, 3-Chloro-N-((2 syn,3S)-2-hydroxy-4-phenyl-3-((S)-tetrahydrofuran-3-yloxycarbonylamino)-butyl)-N-isobutyl-benzenesulfonamide] | 1.4
38 | O=C1N[C@H](COC(=O)N[C@@H](Cc2ccccc2)[C@H](O)CN(CC2CCCC2)S(=O)(=O)c2ccc(Cl)cc2)CO1 [Compound 139, 4-Chloro-N-cyclopentylmethyl-N-(2-(syn)-hydroxy-3-((2-oxazolidon-4-(S)-yl-methyl)-oxycarbonylamino)-4-phenyl-butyl)-benzenesulfonamide] | 1.2
39 | COc1ccc(S(=O)(=O)N(CC2CCCC2)C[C@@H](O)[C@H](Cc2ccccc2)NC(=O)O[C@H]2CCOC2)cc1 [Compound 140, N-cyclopentylmethyl-N-((2 syn,3S)-2-hydroxy-4-phenyl-3-((S)-tetrahydrofuran-3-yloxycarbonylamino)-butyl)-4-methoxy-benzenesulfonamide] | < 0.1
40 | C=CCOC(=O)N[C@@H](Cc1ccccc1)[C@H](O)CN(CC1CCCC1)S(=O)(=O)c1ccc(OC)cc1 [Compound 141, N-((3-allyloxycarbonylamino)-(2 syn,3S)-2-hydroxy-4-phenyl-butyl)-N-cyclopentylmethyl-4-methoxy-benzenesulfonamide] | 0.1
41 | COc1ccc(S(=O)(=O)N(CC2CCCC2)C[C@@H](O)[C@H](Cc2ccccc2)NC(=O)OCc2cccnc2)cc1 [Compound 142] | < 0.1
42 | CC(C)CN(C[C@@H](O)[C@H](Cc1ccccc1)NC(=O)O[C@H]1CCOC1)S(=O)(=O)c1ccc(-c2ccon2)s1 [Compound 145, 5-Isoxazol-3-yl-thiophene-2-sulfonic acid ((2 syn,3S)-2-hydroxy-4-phenyl-3-((S)-tetrahydrofuran-3-yloxycarbonylamino)-butyl)-isobutyl-amide] | 1.4
43 | C=CCOC(=O)N[C@@H](Cc1ccccc1)[C@H](O)CN(CC1CCCC1)S(=O)(=O)c1ccc(NC(C)=O)cc1 [Compound 146, N-(4-((3-(Allyloxycarbonylamino)-(2 syn,3S)-2-hydroxy-4-phenyl-butyl)-cyclopentylmethylsulfamoyl)-phenyl)-acetamide] | 2
44 | CC(=O)Nc1ccc(S(=O)(=O)N(CC2CCCC2)C[C@@H](O)[C@H](Cc2ccccc2)NC(=O)OCc2cccnc2)cc1 [Compound 147, N-(4-(Cyclopentylmethyl-((2 syn,3S)-2-hydroxy-4-phenyl-3-(pyridin-3-yl-methoxycarbonylamino)-butyl)-sulfamoyl)-phenyl)-acetamide] | 1.6
45 | O=C(N[C@@H](Cc1ccccc1)[C@H](O)CN(CC1CCCC1)S(=O)(=O)c1ccccc1)O[C@H]1CCOC1 [Compound 148, N-Cyclopentylmethyl-N-((2 syn,3S)-2-hydroxy-4-phenyl-3-((S)-tetrahydrofuran-3-yloxycarbonylamino)-butyl)-benzenesulfonamide] | 0.2
46 | O=C(N[C@@H](Cc1ccccc1)[C@H](O)CN(CC1CCCC1)S(=O)(=O)c1cccnc1)O[C@H]1CCOC1 [Compound 149, Pyridine-3-sulfonic acid cyclopentylmethyl-((2 syn,3S)-2-hydroxy-4-phenyl-3-((S)-tetrahydrofuran-3-yloxycarbonylamino)-butyl)-amide] | 1.7
